The source of these data is patent publication US20210154202A1, “SYNTHESIS OF DENTIMOL, AN ANTIGLAUCOMA DRUG” (Virginia Commonwealth University, priority 2018, published 2021).

For data set [1] the following is noted: delivered as a topical solution; cited from earlier work.
Data set [2] is described as follows: Ex vivo corneal permeation study, Franz diffusion cells. The data set is classed as in vitro ADME. The note with it: rabbit cornea, 37° C., 3.7 mM OTM equivalent donor. The method, then: Ex vivo corneal permeation study. Corneal permeability was determined using Franz diffusion cells (PermeGear, Hellertown, Pa.). Corneas were extracted from fresh rabbit eyes and placed immediately into diffusion cells with the endothelial surface facing the acceptor chamber and the epithelial surface facing the donor chamber. The acceptor chamber was filled with 5 mL of glutathione buffered Ringer's solution, and the donor chamber with 100 μL of a solution containing 1 mg of DenTimol (3.7 mM OTM equivalent). For comparison, permeation of OTM and OTM-PEG across the cornea were also tested at the same OTM equivalent concentration. The diffusion cells were placed in a water bath at 37° C. At various time points, 250 μL samples were withdrawn from the acceptor chamber, and drug concentrations were measured using the reverse phase HPLC system.

Data set [3] can be described thus: Water solubility / hydrophobicity as stated. Format: physicochemical.
Data set [4] deals with NIH 3T3 fibroblasts. The data set can be described thus: Cytotoxicity study, WST-1 cell proliferation assay. Format: cell-based. Conditions: no concentration stated. The method, then:
Cytotoxicity study. NIH 3T3 fibroblasts were seeded in a 96-well plate at 5000 cells per well and allowed 24 h to attach. The cells were maintained in DMEM medium supplemented with 10% serum, streptomycin […] and penicillin (100 U/mL) at 37° C. in 95% air/5% CO2. Upon the removal of the medium, the cells were incubated with fresh DMEM medium (control) or fresh medium containing various amounts of OTM, OTM-PEG, or DenTimol (n=8) for 24 h. Cell viability relative to untreated cells was determined using the WST-1 cell proliferation assay.

The test system of data set [5] is rats (cornea, ciliary body, retina). The experiment in a line: In vivo safety assessment, ocular tolerance and histology after once-daily dosing for seven days. The protocol: In vivo safety assessment. To assess in vivo ocular tolerance, rats received OTM, timolol, or DenTimol (2×5 μL, 0.5% w/v OTM equivalent) in the right eye once daily for seven days. At the conclusion of the experiment, the rats were euthanized. The eyes were enucleated and immediately fixed in Davidson's solution, and 5 μm sections prepared for histological evaluation.

As for `CC(C)(C)NC[C@H](O)COc1nsnc1N1CCOCC1` [timolol], in data set [1], the “Period after a dose within therapeutic concentration window in the anterior chamber” value is 4 to 5 h and the “Share of total drug reaching the target organ with each dose” value was “about 5%”. Besides, the “Drug permeated through the cornea in 4 h” value in data set [2] worked out at 3.5%.
Consider `C1CN(c2nsnc2OC[C@@H]2CO2)CCO1` [OTM, (S)-4-[4-(Oxiranylmethoxy)-1,2,5-thiadiazol-3-yl]morpholine], for which the “Water solubility / hydrophobicity” value in data set [3] is given as “highly hydrophobic”. Also, the “Toxicity of OTM (stated)” value in data set [4] is “non-toxic”. The “Histology (H&E) of cornea, ciliary body and retina after repeated dosing” value in data set [5] was “did not alter the structures of the cornea, ciliary body, and retina”.
